{"source": "patent US4985360A", "about": "(priority 1987, dated 1991)", "data": [{"tested_on": "bilirubin oxidase", "test": "Substrate specificity by oxygen consumption rate (electrode oxygen meter)", "format": "biochemical, Penicillium janthinellum", "conditions": "0.1 mM substrate, 0.1 mM HgCl2 added", "description": "The intrinsic substrate specificity for various substrates was estimated based upon the oxygen consumption rate using an electrode oxygen meter. The measurements were effected under an addition of HgCl2 to the substrate solution up to a concentration of 0.1 mM. For the measurements, 0.1 mM solution of the substrate with addition of 0.1 ml of the enzyme solution as employed in the determination of the enzyme activity was used. […] Thus, it was confirmed that the bilirubin oxidase according to the present invention has a very high specificity to bilirubin.", "units": {"Relative Activity (substrate specificity)": "%"}, "values": [{"compound": "Hemin", "Relative Activity (substrate specificity)": 0}, {"compound": "Cc1c(N)c(=O)n(-c2ccccc2)n1C", "note": "[4-Aminoantipyrin]", "Relative Activity (substrate specificity)": 0}, {"compound": "C=CC1=C(C)/C(=C/C2=NC(=C\\c3[nH]c(/C=C4\\NC(=O)C(C)=C4C=C)c(C)c3CCC(=O)O)/C(CCC(=O)O)=C2C)NC1=O", "note": "[Biliverdin]", "Relative Activity (substrate specificity)": 0}, {"compound": "Chlorophyll", "Relative Activity (substrate specificity)": 0}, {"compound": "C=CC1=C(C)/C(=C/c2[nH]c(Cc3[nH]c(/C=C4\\NC(=O)C(C)=C4C=C)c(C)c3CCC(=O)O)c(CCC(=O)O)c2C)NC1=O", "note": "[Bilirubin]", "Relative Activity (substrate specificity)": 100}, {"compound": "Chlorophyllin", "Relative Activity (substrate specificity)": 0}, {"compound": "Hemoglobin", "Relative Activity (substrate specificity)": 0}, {"compound": "CC1=C(CCC(=O)O)c2cc3[nH]c(cc4nc(cc5[nH]c(cc1n2)c(C)c5C(C)O)C(C)=C4C(C)O)c(C)c3CCC(=O)O", "note": "(stereo not shown) [Hematoporphyrin]", "Relative Activity (substrate specificity)": 0}, {"compound": "Oc1ccc(O)cc1", "note": "[Hydroquinone]", "Relative Activity (substrate specificity)": 0}, {"compound": "Oc1ccccc1", "note": "[Phenol]", "Relative Activity (substrate specificity)": 0}, {"compound": "Oc1ccccc1O", "note": "[Catechol]", "Relative Activity (substrate specificity)": 0}, {"compound": "Oc1cccc(O)c1O", "note": "[Pyrogallol]", "Relative Activity (substrate specificity)": 0}]}, {"tested_on": "bilirubin oxidase", "test": "Km value determination", "format": "biochemical, Penicillium janthinellum", "conditions": "0.1 ml enzyme solution, 2-20 mg bilirubin substrate solutions", "units": {"Km": "µM"}, "values": [{"compound": "C=CC1=C(C)/C(=C/c2[nH]c(Cc3[nH]c(/C=C4\\NC(=O)C(C)=C4C=C)c(C)c3CCC(=O)O)c(CCC(=O)O)c2C)NC1=O", "note": "[Bilirubin]", "Km": 110}]}, {"tested_on": "bilirubin oxidase", "test": "not given", "format": "biochemical, Penicillium janthinellum", "conditions": "additive (metal ion, EDTA) 1 mM; activity without addition = 100; 10 min", "units": {"Relative Acty. (relative enzyme activity with additive)": "%"}, "values": [{"compound": "[Cl][Al]([Cl])[Cl]", "note": "[AlCl3]", "Relative Acty. (relative enzyme activity with additive)": 88}, {"compound": "[Ba+2].[Cl-].[Cl-]", "note": "[BaCl2]", "Relative Acty. (relative enzyme activity with additive)": 49}, {"compound": "[Cl-].[Cl-].[Mg+2]", "note": "[MgCl2]", "Relative Acty. (relative enzyme activity with additive)": 96}, {"compound": "[Cl][Ni][Cl]", "note": "[NiCl2]", "Relative Acty. (relative enzyme activity with additive)": 43}, {"compound": "[Ca+2].[Cl-].[Cl-]", "note": "[CaCl2]", "Relative Acty. (relative enzyme activity with additive)": 31}, {"compound": "[Cl][Cu][Cl]", "note": "[CuCL2]", "Relative Acty. (relative enzyme activity with additive)": 0}, {"compound": "[N-]=[N+]=[N-].[Na+]", "note": "[NaN3]", "Relative Acty. (relative enzyme activity with additive)": 106}, {"compound": "Triazole", "Relative Acty. (relative enzyme activity with additive)": 105}, {"compound": "[Cl][Mn][Cl]", "note": "[MnCl2]", "Relative Acty. (relative enzyme activity with additive)": 10}, {"compound": "[Cl-].[Cl-].[Co+2]", "note": "[CoCl2]", "Relative Acty. (relative enzyme activity with additive)": 0}, {"compound": "Cl.N", "note": "[NH4 Cl]", "Relative Acty. (relative enzyme activity with additive)": 108}, {"compound": "[Cl-].[Cl-].[Zn+2]", "note": "[ZnCl2]", "Relative Acty. (relative enzyme activity with additive)": 60}, {"compound": "[Cl][Pb][Cl]", "note": "[PbCl2]", "Relative Acty. (relative enzyme activity with additive)": 377}, {"compound": "[Cl][Fe]([Cl])[Cl]", "note": "[FeCl3]", "Relative Acty. (relative enzyme activity with additive)": 113}, {"compound": "[Cl-].[K+]", "note": "[KCl]", "Relative Acty. (relative enzyme activity with additive)": 106}, {"compound": "[Cl-].[Cs+]", "note": "[CsCl]", "Relative Acty. (relative enzyme activity with additive)": 139}]}, {"tested_on": "bilirubin oxidase", "test": "not given", "format": "biochemical, Penicillium janthinellum", "conditions": "bilirubin oxidase, 10 min", "units": {"Relative Acty. (relative enzyme activity with additive)": "%"}, "values": [{"compound": "CCCCCCCCCCCCCCCC[N+](C)(C)C.[Cl-]", "note": "[CTMC, Cetyl trimethylammonium chloride]", "Relative Acty. (relative enzyme activity with additive)": 316}, {"compound": "CCCCCCCCCCCCCCCC[N+](C)(C)C.[Br-]", "note": "[CTMB, Cetyl trimethylammonium bromide]", "Relative Acty. (relative enzyme activity with additive)": 277}]}, {"tested_on": "bilirubin oxidase", "test": "not given", "format": "biochemical, Penicillium janthinellum", "conditions": "bilirubin oxidase, 10 min, 1000 µM", "units": {"Relative Acty. (relative enzyme activity with additive)": "%"}, "values": [{"compound": "O=C(O)CN(CCN(CC(=O)O)CC(=O)O)CC(=O)O", "note": "[EDTA]", "Relative Acty. (relative enzyme activity with additive)": 102}, {"compound": "NO", "note": "[Hydroxylamine]", "Relative Acty. (relative enzyme activity with additive)": 108}, {"compound": "[Cl-].[Na+]", "note": "[NaCl]", "Relative Acty. (relative enzyme activity with additive)": 106}, {"compound": "[Cl-].[Li+]", "note": "[LiCl]", "Relative Acty. (relative enzyme activity with additive)": 112}]}, {"tested_on": "bilirubin oxidase", "test": "not given", "format": "biochemical, Penicillium janthinellum", "conditions": "metal ion 1 mM or surfactant 0.05%", "values": [{"compound": "CCCCCCCCCCCCCCCC[N+](C)(C)C.[Cl-]", "note": "[CTMC, Cetyl trimethylammonium chloride]", "Effect of additive on enzyme activity (in words)": "accelerated considerably"}, {"compound": "[Cl][Hg][Cl]", "note": "[HgCL2]", "Effect of additive on enzyme activity (in words)": "accelerated considerably"}, {"compound": "[Cl][Cu][Cl]", "note": "[CuCL2]", "Effect of additive on enzyme activity (in words)": "inhibited"}, {"compound": "[Cl-].[Cl-].[Co+2]", "note": "[CoCl2]", "Effect of additive on enzyme activity (in words)": "inhibited"}, {"compound": "[Cl][Pb][Cl]", "note": "[PbCl2]", "Effect of additive on enzyme activity (in words)": "accelerated considerably"}]}]}
